No end group written: not given here.
What was measured:
[1] = biological target: HLA-A3 (Homo sapiens, UniProt P04439); experiment: Assembly assay for peptide binding to MHC class I molecules; conditions: HLA-A3, lysate of T2-A3 cells, FIG. 2; read-out: peptide concentration required for half maximal recovery of class I MHC molecules (C50 value)
Method: The binding affinity of the synthetic peptides (Genscript, Scotch Plains, US) to HLA-A3 molecules was measured by means of the assembly assay as described (13). The assay is based on the stabilization of the class I molecule after loading of different concentrations of peptide to the TAP-deficient cell line T2-A3. Briefly, T2-A3 cells were incubated in methionine-free RPMI 1640 (Gibco BRL, Paisley, UK) with 10% dialysed FCS. Subsequently, cells were metabolically labelled with 50 μCi ^35S-methionine (Amersham, Birkeroed, Denmark). […] Cell nuclei were removed by ultracentrifugation. The supernatant of T2-A3 cells was heated for 5 min at 45° C. in order to reduce background signals by preferentially destabilizing empty HLA-A3. The samples were precleared by addition of Pansorbin (Calbiochem, Darmstadt, Germany) and left on rotation overnight. Stably folded HLA molecules were immune-precipitated using the HLA class I-specific, conformation-dependent mAb W6/32. A-Sepharose beads were added to collect the folded MHC complexes and separated by isoelectric focusing gel electropheresis. MHC heavy chains were quantified using the ImageGauge Phosphorimager program (FUJI Photo Film). The intensity of the band is directly related to the amount of peptide-bound class I MHC complex recovered during the assay. Subsequently, the extent of stabilization of HLA-A3 is directly related to the binding affinity of the added peptide. The C50-value was calculated for each peptide as the peptide concentration sufficient for half maximal stabilization.

[2] = tested on: peptide epitope-specific INF-γ releasing effector cells; experiment: IFN-γ ELISPOT assay on in vitro stimulated PBL/PBMC; format: cell-based, human; conditions: for specific T-cell responses among PBMC: HLA-A3+ healthy controls (HD); for specific T-cell responses among PBL: HLA-A3+ renal cell carcinoma (RCC) patients
Method: Peripheral blood lymphocytes (PBL) from HLA-A3^+ cancer patients or peripheral blood mononuclear cells (PBMC) from healthy controls were obtained from the University Hospital Herlev, Denmark. Cells were cryopreserved in FCS with 10% DMSO. Tissue typing was conducted at the Department of Clinical Immunology, The State Hospital, Copenhagen, Denmark. Informed consent was obtained from the patients before any of these measures.
To extend the sensitivity of the ELISPOT assay, PBL were stimulated once before analysis. At day 0, PBL were thawed and plated in 24-well plates (Nunc, Roskilde, Denmark) in X-Vivo medium (Cambrex Bio Science Copenhagen, Vallensbaek Strand, Denmark) with 5% heat-inactivated human serum in the presence of 10 μM peptide (GenScript, Scotch Plains, US). The following day 20 U/ml IL-2 (PeproTech, London, UK) was added to the cultures. The cultured cells were tested for reactivity in the ELISPOT on day 8.
The ELISPOT assay was used to quantify peptide epitope-specific INF-γ releasing effector cells as described previously (WO 2005/049073, Example 1.2). Briefly, nitrocellulose bottomed 96-well plates (MultiScreen MAIP N45, Millipore, Hedehusene, Denmark) were coated with anti-IFN-γ antibody (1-D1K, Mabtech, Nacka, Sweden). The wells were washed, blocked with X-vivo medium before adding 10^4 stimulator T2-A3 cells (with or without 10 μM peptide; Rho1L2: RLGLQVRKNK; Rho1: RAGLQVRKNK (GenScript, Scotch Plains, US)) and effector cells at different concentrations. The plates were incubated overnight. The following day, medium was discarded and the wells were washed prior to addition of biotinylated secondary antibody (7-B6-1-Biotin, Mabtech, Nacka, Sweden). The plates were incubated for 2 hrs, washed and Avidin-enzyme conjugate (AP-Avidin, Calbiochem, Life Technologies, Inc., Roskilde, Denmark) was added to each well. Plates were incubated at RT for 1 hr before the enzyme substrate NBT/BCIP (Gibco Life Technology, Taastrup, Denmark) was added to each well and incubated at RT for 5-10 min. The reaction was terminated with tap-water upon the emergency of dark purple spots. The spots were counted using the ImmunoSpot® Series 2.0 Analyzer (CTL Analyzers, LLC, Cleveland, US) and the peptide specific CTL frequency could be calculated from the numbers of spot-forming cells. The number of antigen-specific spots was calculated by subtracting the mean number of spots of the control wells from the mean number of spots in the positive wells; responses with a p-value<0.05 (Student t-test for unpaired samples) were considered as positive. The definition is in respect with the CIMT Monitoring Panel inter-laboratory testing project (www.c-imt.org).

[3] = tested on: T2-A3 cells; experiment: 51Cr-release cytotoxicity assay, peptide-pulsed T2-A3 target cells; format: cell-based, human; conditions: for lysis of peptide-pulsed T2-A3 cells by CTL clone 9: FIG. 4b; for lysis of peptide-pulsed T2-A3 cells by Rho1L2-stimulated CTL bulk cultures: bulk culture from MM patient after four restimulations, FIG. 4a, unpulsed cells not lysed
Method: (§1) PBL from a melanoma (MM) patient were stimulated with irradiated (20 Gy) autologous Rho1L2-loaded DC (PBL:DC ratio=3×10^6:3×10^5). The following day 120 U/ml IL-2 (PeproTech, London, UK) was added. Stimulation of the cultures were carried out every 10 days with Rho1L2-loaded irradiated autologous DC (2×) followed by Rho1L2-loaded irradiated autologous PBL (3×). Hundred and twenty U/ml IL-2 (PeproTech, London, UK) was added after each stimulation. After one month growing cultures were tested for specificity for Rho1L2.
(§2) PBL from a specific culture were cloned by limiting dilution in the presence of cloning mix containing 10^6/ml irradiated (20 Gy) lymphocytes from three healthy donors in X-vivo with 5% heat-inactivated human serum, 25 mM HEPES buffer (GibcoBRL, Paisley, UK), and 120 U/ml IL-2 (PeproTech, London, UK). The plates were incubated at 37° C./5% CO2. Every 3-4 days 50 μl fresh media were added containing IL-2 to a final concentration of 120 U/ml. Growing clones were expanded using cloning mix cells (5×10^4 cells/well) and IL-2. After expansion the clones were tested for specificity and cytotoxic potential in a standard ^51Cr-release assay.
Conventional ^51Cr-release assays for CTL-mediated cytotoxicity were carried out as described elsewhere (Andersen et al., (1999) J Immunol 163:3812-3818). Target cells were T2-A3 cells, the HLA-A3^+ breast cancer cell line BT-20, the HLA-A3^+ colon cancer cell line HT-29, the HLA-A3^+ head and neck cancer cell line CRL-2095 (all available at the American Type Culture Collection (ATCC)), the HLA-A3^+ melanoma cell line FM9, the HLA-A3^− melanoma cell line FM82, and the HLA-A3^+ melanoma cell line FM3 (Kirkin et al., (1995) Cancer Immunol Immunother 41: 71-81), with or without added HLA specific mAb W6/32 (Barnstable et al., (1978) Cell 14: 9-20) (2 μg/100 μl) (Schmidt et al., (2003) Blood 102: 571-576) or the HLA-A3 specific antibody GAPA3 (Sire et al., (1988) 140: 2422-2430).

[4] = tested on: HLA-A3+ melanoma cell line FM3; experiment: 51Cr-release cytotoxicity assay, FM3 target cells; format: cell-based, human; conditions: unlabeled T2-A3 cells pulsed with peptide, inhibitor to target ratio 20:1, FIG. 5b
Method: as §1, §2
Conventional ^51Cr-release assays for CTL-mediated cytotoxicity were carried out as described elsewhere (Andersen et al., (1999) J Immunol 163:3812-3818). […]

Sequence of HLA-A3 (P04439 25-365): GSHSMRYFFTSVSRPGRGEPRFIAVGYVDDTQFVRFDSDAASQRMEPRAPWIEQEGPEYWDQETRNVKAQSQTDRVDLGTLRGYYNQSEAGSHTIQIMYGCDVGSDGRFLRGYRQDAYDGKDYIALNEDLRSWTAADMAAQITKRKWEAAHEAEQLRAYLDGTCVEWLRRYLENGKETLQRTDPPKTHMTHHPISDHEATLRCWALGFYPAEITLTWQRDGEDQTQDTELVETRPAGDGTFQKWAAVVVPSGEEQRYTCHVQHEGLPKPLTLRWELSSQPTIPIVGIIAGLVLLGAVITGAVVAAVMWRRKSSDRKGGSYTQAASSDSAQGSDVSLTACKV
Sequence of HLA-A3 (P61769 21-119 partner): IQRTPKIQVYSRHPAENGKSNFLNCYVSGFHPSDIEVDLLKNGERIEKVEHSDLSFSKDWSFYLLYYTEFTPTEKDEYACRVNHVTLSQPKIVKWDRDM

Row | Compound | EC50 [1] | specific T-cell responses among PBMC [2] | specific T-cell responses among PBL [2] | lysis of peptide-pulsed T2-A3 cells by CTL clone 9 [3] | lysis of peptide-pulsed T2-A3 cells by Rho1L2-stimulated CTL bulk cultures [3] | patients with specific T-cell responses among PBL ([2]; HLA-A3+ melanoma (MM) patients, PBL stimulated once in vitro, FIG. 3) | cold target inhibition of clone 9 killing of FM3 cells [4]
1 | CC[C@H](C)[C@H](N)C(=O)N[C@@H](CC(C)C)C(=O)N[C@@H](CCCNC(=N)N)C(=O)NCC(=O)N[C@@H](CO)C(=O)N[C@H](C(=O)N[C@@H](C)C(=O)N[C@@H](Cc1c[nH]cn1)C(=O)N[C@@H](CCCCN)C(=O)O)C(C)C [Influenza NP265-273, ILRGSVAHK, reference compound] | 0.3 µM | – | – | – | – | – | –
2 | RAGLQVRKNK [Rho1, RAGLQVRKNK] | > 40 µM | No responses were detected | No responses were detected | effectively lysed | efficiently | – | –
3 | RLGLQVRKNK [Rho1L2, RLGLQVRKNK] | 4 µM | No responses were detected | No responses were detected | effectively lysed | efficiently | 3 out of 10 | completely abrogated
